From patent publication US11702404B2, “GLP-1R modulating compounds” (priority 2019, dated 2023)

Tests used:
GLP-1R = GLP-1R (Homo sapiens, UniProt P43220); experiment: GLP-1R activation: cAMP increase in CHO cells stably expressing GLP-1R; type: cell-based; settings: cAMP increase, CHO cells stably expressing GLP-1R, 10 point dose response, 30 minutes incubation; read-out: EC50
[1] = Microsomal stability, human liver microsomes (predicted hepatic clearance); settings: predicted from in vitro microsomal stability data

Chain of GLP-1R (P43220 24-463): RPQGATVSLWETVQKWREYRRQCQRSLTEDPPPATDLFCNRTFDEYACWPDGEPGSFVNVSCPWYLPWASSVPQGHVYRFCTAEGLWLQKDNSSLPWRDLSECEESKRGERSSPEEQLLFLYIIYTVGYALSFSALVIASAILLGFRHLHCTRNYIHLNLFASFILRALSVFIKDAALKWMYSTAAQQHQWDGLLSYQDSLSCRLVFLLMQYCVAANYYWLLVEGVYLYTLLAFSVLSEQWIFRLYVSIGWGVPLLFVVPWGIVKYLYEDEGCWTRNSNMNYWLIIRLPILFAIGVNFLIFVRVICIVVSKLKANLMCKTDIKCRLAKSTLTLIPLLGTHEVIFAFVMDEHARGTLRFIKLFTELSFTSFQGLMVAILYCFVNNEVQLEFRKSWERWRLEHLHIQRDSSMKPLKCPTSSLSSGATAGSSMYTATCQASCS

| EC50 (GLP-1R) [nM] | Predicted Hepatic Clearance (Pred. Cl.) [1] [mL/min/kg] | Compound |
| --- | --- | --- |
| 102 | 12 | COCCn1c(Cc2ccc(-c3cccc(OCc4cccc(COC)c4)n3)cc2F)nc2ccc(C(=O)O)cc21 [Example 509, 2-(2-fluoro-4-(6-((3-(methoxymethyl)benzyl)oxy)pyridin-2-yl)benzyl)-1-(2-methoxyethyl)-1H-benzo[d]imidazole-6-carboxylic acid] |
| 57 | 5.17 | COCCn1c(Cc2ccc(-c3cc(C#N)cc(OCc4ccc(C#N)cc4F)c3)cc2F)nc2ccc(C(=O)O)cc21 [Example 29, 2-((3′-cyano-5′-((4-cyano-2-fluorobenzyl)oxy)-3-fluoro-[1,1′-biphenyl]-4-yl)methyl)-1-(2-methoxyethyl)-1H-benzo[d]imidazole-6-carboxylic acid] |
| 8.6 | 20 | COCCn1c(Cc2cc(F)c(-c3cccc(OCc4cccnc4OC(F)F)n3)cc2F)nc2ccc(C(=O)O)cc21 [Example 542, 2-(4-(6-((2-(difluoromethoxy)pyridin-3-yl)methoxy)pyridin-2-yl)-2,5-difluorobenzyl)-1-(2-methoxyethyl)-1H-benzo[d]imidazole-6-carboxylic acid] |
| 8.14 | 2.67 | N#Cc1ccc(COc2cccc(-c3cc(F)c(Cc4nc5ccc(C(=O)O)cc5n4C4COCCOC4)cc3F)n2)c(F)c1 [Example 702] |
| 83.5 | 1.83 | CO[C@H]1C[C@H](Cn2c(Cc3cc(F)c(-c4cccc(OCc5ccc(C#N)cc5F)n4)cc3F)nc3ccc(C(=O)O)cc32)C1 [Example 745] |
| 62.3 | 8.42 | CN(C)CC1(Cn2c(Cc3ccc(-c4cccc(OCc5ccc(C#N)cc5F)n4)cc3F)nc3ccc(C(=O)O)cc32)CC1 [Example 290, 2-(4-(6-((4-cyano-2-fluorobenzyl)oxy)pyridin-2-yl)-2-fluorobenzyl)-1-((1-((dimethylamino)methyl)cyclopropyl)methyl)-1H-benzo[d]imidazole-6-carboxylic acid] |
| 777 | 5.83 | COCCn1c(Cc2ccc(-c3cccc(OCc4cccc(S(C)(=O)=O)c4)n3)cc2F)nc2ccc(C(=O)O)cc21 [Example 495, 2-(2-fluoro-4-(6-((3-(methylsulfonyl)benzyl)oxy)pyridin-2-yl)benzyl)-1-(2-methoxyethyl)-1H-benzo[d]imidazole-6-carboxylic acid] |
| 0.36 | 6.25 | CCn1cncc1Cn1c(Cc2ccc(-c3cccc(OCc4ccc(C#N)cc4F)n3)c(F)c2)nc2ccc(C(=O)O)cc21 [Example 520, 2-(4-(6-((4-cyano-2-fluorobenzyl)oxy)pyridin-2-yl)-3-fluorobenzyl)-1-((1-ethyl-1H-imidazol-5-yl)methyl)-1H-benzo[d]imidazole-6-carboxylic acid] |
| 2.26 | 4 | COCCn1c(Cc2cc(F)c(-c3cccc(OCc4ccc(-c5cnn(C)c5)cc4F)n3)cc2F)nc2ccc(C(=O)O)cc21 [Example 915, 2-[[2,5-difluoro-4-[6-[[2-fluoro-4-(1-methylpyrazol-4-yl)phenyl]methoxy]-2-pyridyl]phenyl]methyl]-3-(2-methoxyethyl)benzimidazole-5-carboxylic acid] |
| 0.67 | <1.83 | COc1cc(C#N)ccc1COc1nccc(-c2cc(F)c(Cc3nc4ccc(C(=O)O)cc4n3CC3(CF)CC3)cc2F)n1 [Example 430, 2-(4-(2-((4-cyano-2-methoxybenzyl)oxy)pyrimidin-4-yl)-2,5-difluorobenzyl)-1-((1-(fluoromethyl)cyclopropyl)methyl)-1H-benzo[d]imidazole-6-carboxylic acid] |
| 3.4 | 4.33 | N#CCC1(Cn2c(Cc3ccc(-c4cccc(OCc5ccc(C#N)cc5F)n4)cc3F)nc3ccc(C(=O)NS(=O)(=O)C4CC4)cc32)CC1 [Example 55, 2-(4-(6-((4-cyano-2-fluorobenzyl)oxy)pyridin-2-yl)-2-fluorobenzyl)-1-((1-(cyanomethyl)cyclopropyl)methyl)-N-(cyclopropylsulfonyl)-1H-benzo[d]imidazole-6-carboxamide] |
| 1.03 | 1.83 | N#Cc1ccc(COc2cccc(-c3cc(F)c(Cc4nc5ccc(C(=O)O)cc5n4CC4(F)CC4)cc3F)n2)c(F)c1 [Example 729] |
| 43.1 | 5.33 | COCCn1c(Cc2ncc(-c3cccc(OCc4ccc(C#N)cc4F)n3)cc2Cl)nc2ccc(C(=O)O)cc21 [Example 518, 2-((5′-chloro-6-((4-cyano-2-fluorobenzyl)oxy)-[2,3′-bipyridin]-6′-yl)methyl)-1-(2-methoxyethyl)-1H-benzo[d]imidazole-6-carboxylic acid] |
| 2.18 | 1.83 | COCCn1c(Cc2cc(F)c(-c3cccc(OCc4ccc(-c5cnccn5)cc4F)n3)cc2F)nc2ccc(C(=O)O)cc21 [Example 916] |
| 0.06 | 4.83 | N#Cc1ccc(COc2nc(-c3cc(F)c(Cc4nc5ccc(C(=O)O)cc5n4C[C@@H]4CCO4)c(F)c3F)ncc2F)c(F)c1 [Example 166, (S)-2-(4-(4-((4-cyano-2-fluorobenzyl)oxy)-5-fluoropyrimidin-2-yl)-2,3,6-trifluorobenzyl)-1-(oxetan-2-ylmethyl)-1H-benzo[d]imidazole-6-carboxylic acid] |
| 575 | 3.67 | COCCn1c(C2OCCc3cc(-c4cccc(OCc5ccc(C#N)cc5F)n4)ccc32)nc2ccc(C(=O)O)cc21 (single isomer, unassigned) [Example 48, 2-(6-(6-((4-cyano-2-fluorobenzyl)oxy)pyridin-2-yl)isochroman-1-yl)-1-(2-methoxyethyl)-1H-benzo[d]imidazole-6-carboxylic acid] |
| 5.22 | 2.83 | N#Cc1ccc(COc2cccc(-c3ccc(Cc4nc5ccc(C(=O)O)cc5n4CCOC(F)F)c(F)c3)n2)c(F)c1 [Example 324, 2-(4-(6-((4-cyano-2-fluorobenzyl)oxy)pyridin-2-yl)-2-fluorobenzyl)-1-(2-(difluoromethoxy)ethyl)-1H-benzo[d]imidazole-6-carboxylic acid] |
| 5.51 | 4.83 | COCCn1c(Cc2cc(F)c(-c3cccc(OCc4cc(F)c(C(F)F)cc4F)n3)cc2F)nc2ccc(C(=O)O)cc21 [Example 863] |
| 39.3 | 3.5 | CCn1c(Cn2c(Cc3ccc(-c4cccc(OCc5ccc(C#N)cc5F)n4)cc3F)nc3ccc(C(=O)O)cc32)cnc1C [Example 519, 2-(4-(6-((4-cyano-2-fluorobenzyl)oxy)pyridin-2-yl)-2-fluorobenzyl)-1-((l-ethyl-2-methyl-1H-imidazol-5-yl)methyl)-1H-benzo[d]imidazole-6-carboxylic acid] |
| 0.04 | 6.17 | N#Cc1ccc(COc2ccc(F)c(-c3cc(F)c(Cc4nc5c(F)cc(C(=O)O)cc5n4C[C@@H]4CCO4)cc3F)n2)c(F)c1 [Example 792] |
